# Source: ChEMBL document CHEMBL3132769, “Fragment growing to retain or alter the selectivity of anchored kinase hinge-binding fragments” (Medchemcomm, 2014)
# Assays:
# [1] = target: T1, Serine/threonine-protein kinase D1 (Homo sapiens) (UniProt Q15139); test: Inhibition of human full length PKD1 expressed in baculovirus assessed as substrate phosphorylation using fluorescence-labelled peptides as substrate at 70 uM after 90 mins by microfluidic peptide phosphorylation assay
# T1 sequence (whole entry): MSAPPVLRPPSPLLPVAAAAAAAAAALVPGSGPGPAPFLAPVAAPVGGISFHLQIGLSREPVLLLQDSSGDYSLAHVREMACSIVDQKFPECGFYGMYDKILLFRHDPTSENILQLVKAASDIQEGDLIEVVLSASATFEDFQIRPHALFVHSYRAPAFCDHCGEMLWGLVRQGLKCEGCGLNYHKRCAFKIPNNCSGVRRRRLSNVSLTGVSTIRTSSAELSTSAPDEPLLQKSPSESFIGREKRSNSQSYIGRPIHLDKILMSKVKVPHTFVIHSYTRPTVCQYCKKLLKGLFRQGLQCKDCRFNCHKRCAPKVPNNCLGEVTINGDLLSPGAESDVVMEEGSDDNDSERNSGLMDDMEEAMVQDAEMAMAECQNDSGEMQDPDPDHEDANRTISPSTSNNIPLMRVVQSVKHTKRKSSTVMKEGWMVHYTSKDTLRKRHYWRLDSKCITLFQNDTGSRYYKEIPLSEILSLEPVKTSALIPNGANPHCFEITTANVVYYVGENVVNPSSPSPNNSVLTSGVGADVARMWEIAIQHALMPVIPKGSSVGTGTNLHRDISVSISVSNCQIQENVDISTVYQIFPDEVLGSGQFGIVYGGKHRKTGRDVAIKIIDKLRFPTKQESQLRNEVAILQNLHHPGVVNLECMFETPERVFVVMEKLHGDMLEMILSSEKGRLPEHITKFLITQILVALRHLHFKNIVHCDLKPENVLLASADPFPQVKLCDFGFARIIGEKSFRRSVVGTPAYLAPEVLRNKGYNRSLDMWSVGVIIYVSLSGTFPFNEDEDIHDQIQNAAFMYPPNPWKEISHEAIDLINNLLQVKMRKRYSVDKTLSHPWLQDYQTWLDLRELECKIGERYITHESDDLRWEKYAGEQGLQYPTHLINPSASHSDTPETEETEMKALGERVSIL
# [2] = target: Ribosomal protein S6 kinase alpha-1 (Homo sapiens) (UniProt Q15418); test: Inhibition of human full length RSK1 expressed in baculovirus assessed as substrate phosphorylation using fluorescence-labelled peptides as substrate at 70 uM after 90 mins by microfluidic peptide phosphorylation assay
# [3] = target: T2, Protein kinase C zeta type (Homo sapiens) (UniProt Q05513); test: Inhibition of human full length PKC zeta expressed in baculovirus assessed as substrate phosphorylation using fluorescence-labelled peptides as substrate at 95 uM after 90 mins by microfluidic peptide phosphorylation assay
# T2 sequence (whole entry): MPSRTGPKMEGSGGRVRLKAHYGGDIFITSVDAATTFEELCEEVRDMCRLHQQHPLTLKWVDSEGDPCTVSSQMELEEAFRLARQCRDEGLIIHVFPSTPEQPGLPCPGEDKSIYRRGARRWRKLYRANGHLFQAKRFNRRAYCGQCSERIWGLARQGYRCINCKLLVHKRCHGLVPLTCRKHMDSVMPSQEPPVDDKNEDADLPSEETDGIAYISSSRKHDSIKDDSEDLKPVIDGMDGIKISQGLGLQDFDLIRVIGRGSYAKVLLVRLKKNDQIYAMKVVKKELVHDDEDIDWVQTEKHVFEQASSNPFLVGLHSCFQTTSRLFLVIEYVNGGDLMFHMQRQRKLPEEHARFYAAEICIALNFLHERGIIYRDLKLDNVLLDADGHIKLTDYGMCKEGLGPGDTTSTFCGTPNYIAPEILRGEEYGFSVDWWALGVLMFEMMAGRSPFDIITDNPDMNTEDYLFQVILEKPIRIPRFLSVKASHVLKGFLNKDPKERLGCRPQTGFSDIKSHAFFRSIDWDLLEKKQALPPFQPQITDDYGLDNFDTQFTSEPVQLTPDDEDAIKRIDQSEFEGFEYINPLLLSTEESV
# [4] = target: T3, cGMP-dependent protein kinase 1 (Homo sapiens) (UniProt Q13976); test: Inhibition of human full length PKG-1beta expressed in baculovirus assessed as substrate phosphorylation using fluorescence-labelled peptides as substrate at 8 uM after 90 mins by microfluidic peptide phosphorylation assay
# T3 sequence (whole entry): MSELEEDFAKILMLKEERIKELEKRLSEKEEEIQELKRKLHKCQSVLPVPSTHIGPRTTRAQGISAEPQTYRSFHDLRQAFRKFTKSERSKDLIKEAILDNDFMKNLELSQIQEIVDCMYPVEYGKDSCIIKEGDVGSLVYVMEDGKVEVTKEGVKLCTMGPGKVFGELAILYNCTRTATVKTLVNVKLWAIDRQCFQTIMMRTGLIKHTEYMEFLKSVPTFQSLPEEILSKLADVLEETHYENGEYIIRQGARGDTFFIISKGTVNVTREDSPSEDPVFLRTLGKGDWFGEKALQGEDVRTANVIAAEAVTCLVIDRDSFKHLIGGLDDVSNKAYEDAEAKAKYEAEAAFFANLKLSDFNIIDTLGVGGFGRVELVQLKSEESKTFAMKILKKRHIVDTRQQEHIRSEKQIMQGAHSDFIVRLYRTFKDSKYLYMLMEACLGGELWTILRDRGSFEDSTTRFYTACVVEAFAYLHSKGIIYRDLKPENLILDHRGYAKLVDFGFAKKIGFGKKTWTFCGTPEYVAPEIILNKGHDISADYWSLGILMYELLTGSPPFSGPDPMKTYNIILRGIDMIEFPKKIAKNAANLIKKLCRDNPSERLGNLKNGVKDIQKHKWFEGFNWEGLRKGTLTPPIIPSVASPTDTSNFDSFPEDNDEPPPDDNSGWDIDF
# Ribosomal protein S6 kinase alpha-1 (Homo sapiens), sequence (Q15418 whole entry): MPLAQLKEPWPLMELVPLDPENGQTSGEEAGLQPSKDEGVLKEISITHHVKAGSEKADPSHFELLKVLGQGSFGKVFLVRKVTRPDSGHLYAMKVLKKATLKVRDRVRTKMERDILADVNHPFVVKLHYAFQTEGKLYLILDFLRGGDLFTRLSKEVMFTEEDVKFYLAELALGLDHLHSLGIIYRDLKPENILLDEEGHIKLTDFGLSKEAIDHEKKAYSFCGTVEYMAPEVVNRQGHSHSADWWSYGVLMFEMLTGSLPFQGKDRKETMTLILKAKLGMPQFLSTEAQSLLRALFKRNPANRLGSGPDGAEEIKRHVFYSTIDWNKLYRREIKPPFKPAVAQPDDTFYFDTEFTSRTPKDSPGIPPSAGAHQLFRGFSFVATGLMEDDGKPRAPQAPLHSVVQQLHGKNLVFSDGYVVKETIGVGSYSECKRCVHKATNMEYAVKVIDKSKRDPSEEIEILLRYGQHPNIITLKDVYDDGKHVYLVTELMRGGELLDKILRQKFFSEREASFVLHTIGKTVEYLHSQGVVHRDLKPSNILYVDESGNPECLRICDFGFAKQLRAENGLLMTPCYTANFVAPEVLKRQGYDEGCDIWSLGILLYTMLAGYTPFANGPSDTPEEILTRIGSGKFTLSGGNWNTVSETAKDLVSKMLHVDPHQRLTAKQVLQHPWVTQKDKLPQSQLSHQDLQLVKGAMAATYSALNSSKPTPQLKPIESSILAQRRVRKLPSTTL
compound,measurement,setting,value
CNCc1ccc(-c2ncnc3[nH]cnc23)cc1,inhibition,[1],54.5%
same,inhibition,[2],48%
NCCc1ccc(-c2ncnc3[nH]cnc23)cc1,inhibition,[3],0%
NCC1CCN(c2ncnc3[nH]ccc23)CC1,inhibition,[4],76.5%
